Experimental data published in patent US11390604B2 (Hoffmann-La Roche Inc., priority 2019, dated 2022).
Counter-ions that a name gives are not always drawn.

The compounds below were run on Acinetobacter baumannii ATCC 17961 (assay: Antimicrobial susceptibility testing: 90% growth inhibitory concentration (IC90) determination). Conditions: ATCC17961, Acinetobacter baumannii ATCC 17961, Iso-Sensitest broth, read-out: ATCC 17961 IC90.
Assay type: cell-based
Protocol: Antimicrobial Susceptibility Testing:
90% Growth Inhibitory Concentration (IC90) Determination
The in vitro antimicrobial activity of the compounds was determined according to the following procedure:
The assay used a 10-points Iso-Sensitest broth medium to measure quantitatively the in vitro activity of the compounds against Acinetobacter baumannii ATCC 17961.
Stock compounds in DMSO were serially twofold diluted (e.g. range from 50 to 0.097 μM final concentration) in 384 wells microtiter plates and inoculated with 49 μl the bacterial suspension in Iso-Sensitest medium to have a final cell concentration of ˜5×10^(5) CFU/ml in a final volume/well of 50 ul/well. Microtiter plates were incubated at 35±2° C.
Bacterial cell growth was determined with the measurement of optical density at X=600 nm each 20 minutes over a time course of 16 h. Growth inhibition was calculated during the logarithmic growth of the bacterial cells with determination of the concentration inhibiting 50% (IC50) and 90% (IC90) of the growth.
Table 1 provides the 90% growth inhibitory concentrations (IC90) in micromoles per liter of the compounds of present disclosure obtained against the strain Acinetobacter baumannii ATCC 17961.

Question: With Cn1c(-c2cn(C3CC3(F)F)nc2C(F)(F)F)cnc1C(=O)Nc1ccc(C(=O)N[C@H]2[C@@H]3CN(C(=O)N[C@@H]4CCC[C@@H]4N)C[C@@H]32)c(Cl)c1 (mixture of isomers) [Example 186, cis-N-[(1R,2S)-2-aminocyclopentyl]-6-[[2-chloro-4-[[5-[1-(2,2-difluorocyclopropyl)-3-(trifluoromethyl)pyrazol-4-yl]-1-methylimidazole-2-carbonyl]amino]benzoyl]amino]-3-azabicyclo[3.1.0]hexane-3-carboxamide, formate salt] as the compound, how does the IC90 read?
Answer: Its IC90 is 150 nM.

Question: How did the IC90 turn out when Cn1c(-c2cn(C3CC3(F)F)nc2C(F)(F)F)cnc1C(=O)Nc1ccc(C(=O)NC2[C@H]3CN(C(=O)N4CC[C@@H](N)C4)C[C@@H]23)c(Cl)c1 (mixture of isomers) [Example 192, N-[4-[[cis-3-[(3R)-3-aminopyrrolidine-1-carbonyl]-3-azabicyclo[3.1.0]hexan-6-yl]carbamoyl]-3-chlorophenyl]-5-[1-(2,2-difluorocyclopropyl)-3-(trifluoromethyl)pyrazol-4-yl]-1-methylimidazole-2-carboxamide, formate salt] was run?
Answer: The IC90 was 180 nM.

Question: With Cn1c(-c2cn(C3CC3(F)F)nc2C(F)(F)F)cnc1C(=O)Nc1ccc(C(=O)N[C@H]2[C@@H]3CN(C(=O)N[C@H]4CNC[C@@H]4O)C[C@@H]32)c(Cl)c1 (mixture of isomers) [Example 381, exo-6-(2-chloro-4-(5-(1-(2,2-difluorocyclopropyl)-3-(trifluoromethyl)-1H-pyrazol-4-yl)-1-methyl-1H-imidazole-2-carboxamido)benzamido)-N-((3S,4S)-4-hydroxypyrrolidin-3-yl)-3-azabicyclo[3.1.0]hexane-3-carboxamide formate] as the compound, how does the IC90 read?
Answer: Its IC90 is 123 nM.

Question: For Cn1c(-c2cn(C3CC3(F)F)nc2C(F)(F)F)cnc1C(=O)Nc1ccc(C(=O)N[C@H]2[C@@H]3CN(C(=O)N[C@@H]4CNC[C@H]4O)C[C@@H]32)c(Cl)c1 (mixture of isomers) [Example 382, exo-6-[[2-chloro-4-[[5-[1-(2,2-difluorocyclopropyl)-3-(trifluoromethyl)pyrazol-4-yl]-1-methylimidazole-2-carbonyl]amino]benzoyl]amino]-N-[trans-4-hydroxypyrrolidin-azabicyclo[3.1.0]hexane-3-carboxamide, formate salt], which IC90 is on record?
Answer: The IC90 was 127 nM.

Question: How did the IC90 turn out when CCc1cc(NC(=O)c2ncc(-c3cn(CC#N)nc3C(F)(F)F)n2C)ccc1C(=O)N1CCN(C(=O)N2CC[C@H](C)[C@H](N)C2)CC1 (racemic) [Example 137, 5-[1-(cyanomethyl)-3-(trifluoromethyl)pyrazol-4-yl]-N-[3-ethyl-4-[4-[rac-(3R,4R)-3-amino-4-methylpiperidine-1-carbonyl]piperazine-1-carbonyl]phenyl]-1-methylimidazole-2-carboxamide;formic acid] was run?
Answer: Its IC90 is 845 nM.

Question: With Cn1c(-c2cn(C3CC3(F)F)nc2C(F)(F)F)cnc1C(=O)Nc1ccc(C(=O)NC2[C@H]3CN(C(=O)N[C@H]4CCNC4)C[C@@H]23)c(Cl)c1 (mixture of isomers) [Example 189] as the compound, how does the IC90 read?
Answer: The IC90 was 167 nM.

Question: How did the IC90 turn out when Cn1c(-c2cn(C3CC3(F)F)nc2C(F)(F)F)cnc1C(=O)Nc1ccc(C(=O)NC2CCN(C(=O)N[C@H]3C[C@@H](N)C3)CC2)c(Cl)c1 (mixture of isomers) [Example 237, rac-N-((1s,3s)-3-aminocyclobutyl)-4-(2-chloro-4-(5-(1-(2,2-difluorocyclopropyl)-3-(trifluoromethyl)-1H-pyrazol-4-yl)-1-methyl-1H-imidazole-2-carboxamido)benzamido)piperi-dine-1-carboxamide formate] was run?
Answer: The IC90 was 271 nM.

Same assay, conditions: Acinetobacter baumannii, ATCC17961, read-out: ATCC 17961 IC90, Acinetobacter baumannii ATCC 17961, Iso-Sensitest broth

Question: For Cn1c(-c2cn(C3CC3(F)F)nc2C(F)(F)F)cnc1C(=O)Nc1ccc(C(=O)NCC2CCCN(C(=O)N[C@H]3CNC[C@@H]3O)C2)c(Cl)c1 (mixture of isomers) [Example 226, formate], which IC90 is on record?
Answer: Its IC90 is 259 nM.
